Assay [1] relates to acute promyelocytic leukemia line (HL60). Conditions: 50 to 100 μM zinc. As to the method:
Cellular Proliferation—The proliferation of exponential phase cultures was assessed by colorimetric assay. In brief, 2×10^5 suspension cells per well were seeded on 96-well V-bottom microtiter plates. Stock solutions of control vehicle, MGd or Zn(OAc)2 in medium were added and plates were incubated at 37° C. under a 5% CO2/95% air atmosphere. After 24 hours, medium was replaced with fresh medium. After 2 additional days, medium was exchanged with fresh medium (150 μL/well) supplemented with 3-(4,5-dimethylthiazol-2-yl)-2,5-diphenyltetrazolium bromide (MTT, 0.5 mg/mL, Sigma Biochemical, St. Louis, Mo.). Plates were incubated at 37° C. and viable cells measured.

The next assay has as its system Thioredoxin reductase. Particulars: plateau phase PC3 cultures. As to the method:
Methods: Lipoate Reduction. Thioredoxin reductase activity was assessed by measuring the rate of lipoate reduction. In brief, A549 or PC3 cells (10,000 cells/well) were plated on 96-well plates and allowed to adhere overnight and grow two additional days until confluent. Cells were treated with MGd, zinc, or 5% mannitol for 2-4 hours, as indicated. Medium was removed, cells were washed with Hanks Balanced Salt Solution (HBSS), and a solution of 5 mM lipoic acid and 1 mM 5,5′-dithiobis(2-nitrobenzoic acid) in HBSS (100 μL/well) was added. Plates were incubated at ambient temperature in the dark. At chosen time intervals, plate absorbance was measured at 405-650 nm. Plate absorbances were normalized to wells containing neither exogenous zinc nor texaphyrin complex to allow plate-to-plate comparison. In some experiments, L-buthionine-[S,R]-sulfoximine (BSO, 100 μM) was added 24 hours prior to MGd or zinc treatment, to inhibit any contribution to lipoate reduction made by glutathione-dependent pathways (28). Actinomycin D (2.5 μg/mL) or cycloheximide (10 μg/mL), where present, was added 1 hour prior to texaphyrin or zinc treatment. Viability was checked on parallel plates using the tetrazolium dye 3-(4,5-dimethylthiazol-2-yl)-5-(3-carboxymethoxyphenyl)-2-(4-sulfophenyl)-2H-tetrazolium (MTS) following the manufacturers protocol (Promega Corp.).

SMILES strings stand for the structures.

In the case of `CC(=O)[O-].CC(=O)[O-].[Zn+2]` [Zn(OAc)2, Zinc acetate], in assay [1], the Proliferation result is on record as “but not in an acute promyelocytic leukemia line (HL60)”. Besides, the Lipoate reduction entry in the assay on Thioredoxin reductase is listed as “inhibited at lower concentrations of zinc”.
